# Legend:
# Type in all cases: functional, organism-based
# [1] = target: T1, ATP-binding cassette sub-family C member 2 (Mus musculus, UniProt Q8VI47); assay: TP_TRANSPORTER: Western (protein level: increase to 350%) in vivo, liver of Him OF1 mouse
# [2] = target: T1, ATP-binding cassette sub-family C member 2; assay: TP_TRANSPORTER: RT-PCR (mRNA level: 3 fold) in vivo, liver of Him OF1 mouse
# [3] = target: T2, ATP-dependent translocase ABCB1 (Mus musculus, UniProt P21447); assay: TP_TRANSPORTER: Western (protein level: increase to 220%) in vivo, liver of Him OF1 mouse
# [4] = target: T2, ATP-dependent translocase ABCB1; assay: TP_TRANSPORTER: RT-PCR (mRNA level: 2 fold) in vivo, liver of Him OF1 mouse
# [5] = target: T3, Solute carrier organic anion transporter family member 1A1 (Mus musculus, UniProt Q9QXZ6); assay: TP_TRANSPORTER: Western (protein level: reduction to 45% of control) in vivo, liver of Him OF1 mouse
# T3 sequence (Q9QXZ6 whole entry): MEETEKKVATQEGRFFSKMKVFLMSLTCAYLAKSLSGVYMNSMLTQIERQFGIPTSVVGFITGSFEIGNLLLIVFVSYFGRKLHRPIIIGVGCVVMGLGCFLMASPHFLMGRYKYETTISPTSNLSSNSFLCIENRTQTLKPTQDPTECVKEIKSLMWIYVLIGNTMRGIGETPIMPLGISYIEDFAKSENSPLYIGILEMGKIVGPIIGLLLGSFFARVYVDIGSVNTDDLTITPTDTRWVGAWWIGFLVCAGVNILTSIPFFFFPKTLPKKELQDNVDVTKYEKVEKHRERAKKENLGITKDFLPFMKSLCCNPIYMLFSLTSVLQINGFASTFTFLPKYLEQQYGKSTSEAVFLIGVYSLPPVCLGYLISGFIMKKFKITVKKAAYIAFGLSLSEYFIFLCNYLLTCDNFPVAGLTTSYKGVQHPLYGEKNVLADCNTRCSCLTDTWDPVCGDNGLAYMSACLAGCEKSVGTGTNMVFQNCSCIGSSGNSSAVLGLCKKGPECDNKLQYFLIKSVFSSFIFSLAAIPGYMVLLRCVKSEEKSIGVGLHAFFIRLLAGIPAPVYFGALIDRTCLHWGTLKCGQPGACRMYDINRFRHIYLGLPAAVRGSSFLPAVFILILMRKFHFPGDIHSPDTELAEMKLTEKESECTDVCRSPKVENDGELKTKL
# [6] = target: T3, Solute carrier organic anion transporter family member 1A1; assay: TP_TRANSPORTER: RT-PCR (mRNA level: reduction to 72 % of control) in vivo, liver of Him OF1 mouse
# T2 sequence (P21447 whole entry): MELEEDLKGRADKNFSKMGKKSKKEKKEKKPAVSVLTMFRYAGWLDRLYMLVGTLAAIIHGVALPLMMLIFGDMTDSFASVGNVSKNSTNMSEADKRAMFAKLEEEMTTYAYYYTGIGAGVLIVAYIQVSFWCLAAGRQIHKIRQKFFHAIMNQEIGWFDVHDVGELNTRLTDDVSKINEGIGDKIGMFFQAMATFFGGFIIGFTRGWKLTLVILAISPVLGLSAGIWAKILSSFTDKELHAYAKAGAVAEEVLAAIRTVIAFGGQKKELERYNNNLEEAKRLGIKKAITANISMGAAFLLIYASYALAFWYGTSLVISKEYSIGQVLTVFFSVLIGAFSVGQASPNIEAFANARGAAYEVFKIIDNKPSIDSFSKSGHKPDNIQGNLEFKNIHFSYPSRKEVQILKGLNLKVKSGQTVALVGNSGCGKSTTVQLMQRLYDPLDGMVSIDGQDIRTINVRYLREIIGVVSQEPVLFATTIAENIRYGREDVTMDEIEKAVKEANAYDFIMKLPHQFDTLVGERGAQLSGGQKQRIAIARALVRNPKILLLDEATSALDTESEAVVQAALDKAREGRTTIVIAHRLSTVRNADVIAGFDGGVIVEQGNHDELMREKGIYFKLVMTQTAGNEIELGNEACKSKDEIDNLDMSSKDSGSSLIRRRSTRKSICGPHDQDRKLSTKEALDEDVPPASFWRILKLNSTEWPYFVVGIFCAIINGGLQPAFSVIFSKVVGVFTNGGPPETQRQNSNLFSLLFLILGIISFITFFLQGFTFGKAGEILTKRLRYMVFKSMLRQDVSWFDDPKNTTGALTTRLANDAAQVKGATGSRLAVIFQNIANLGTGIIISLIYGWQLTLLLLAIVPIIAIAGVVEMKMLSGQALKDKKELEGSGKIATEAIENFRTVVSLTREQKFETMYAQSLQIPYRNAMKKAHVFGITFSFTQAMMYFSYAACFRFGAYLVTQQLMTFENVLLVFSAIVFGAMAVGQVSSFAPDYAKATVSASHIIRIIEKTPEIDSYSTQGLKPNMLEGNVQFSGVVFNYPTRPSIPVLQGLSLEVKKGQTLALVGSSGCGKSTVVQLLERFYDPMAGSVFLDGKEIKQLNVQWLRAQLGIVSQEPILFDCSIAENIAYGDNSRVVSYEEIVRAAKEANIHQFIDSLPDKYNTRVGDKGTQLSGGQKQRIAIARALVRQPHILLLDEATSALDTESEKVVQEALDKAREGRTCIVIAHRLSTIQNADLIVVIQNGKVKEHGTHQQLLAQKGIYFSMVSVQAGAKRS
# T1 sequence (Q8VI47 whole entry): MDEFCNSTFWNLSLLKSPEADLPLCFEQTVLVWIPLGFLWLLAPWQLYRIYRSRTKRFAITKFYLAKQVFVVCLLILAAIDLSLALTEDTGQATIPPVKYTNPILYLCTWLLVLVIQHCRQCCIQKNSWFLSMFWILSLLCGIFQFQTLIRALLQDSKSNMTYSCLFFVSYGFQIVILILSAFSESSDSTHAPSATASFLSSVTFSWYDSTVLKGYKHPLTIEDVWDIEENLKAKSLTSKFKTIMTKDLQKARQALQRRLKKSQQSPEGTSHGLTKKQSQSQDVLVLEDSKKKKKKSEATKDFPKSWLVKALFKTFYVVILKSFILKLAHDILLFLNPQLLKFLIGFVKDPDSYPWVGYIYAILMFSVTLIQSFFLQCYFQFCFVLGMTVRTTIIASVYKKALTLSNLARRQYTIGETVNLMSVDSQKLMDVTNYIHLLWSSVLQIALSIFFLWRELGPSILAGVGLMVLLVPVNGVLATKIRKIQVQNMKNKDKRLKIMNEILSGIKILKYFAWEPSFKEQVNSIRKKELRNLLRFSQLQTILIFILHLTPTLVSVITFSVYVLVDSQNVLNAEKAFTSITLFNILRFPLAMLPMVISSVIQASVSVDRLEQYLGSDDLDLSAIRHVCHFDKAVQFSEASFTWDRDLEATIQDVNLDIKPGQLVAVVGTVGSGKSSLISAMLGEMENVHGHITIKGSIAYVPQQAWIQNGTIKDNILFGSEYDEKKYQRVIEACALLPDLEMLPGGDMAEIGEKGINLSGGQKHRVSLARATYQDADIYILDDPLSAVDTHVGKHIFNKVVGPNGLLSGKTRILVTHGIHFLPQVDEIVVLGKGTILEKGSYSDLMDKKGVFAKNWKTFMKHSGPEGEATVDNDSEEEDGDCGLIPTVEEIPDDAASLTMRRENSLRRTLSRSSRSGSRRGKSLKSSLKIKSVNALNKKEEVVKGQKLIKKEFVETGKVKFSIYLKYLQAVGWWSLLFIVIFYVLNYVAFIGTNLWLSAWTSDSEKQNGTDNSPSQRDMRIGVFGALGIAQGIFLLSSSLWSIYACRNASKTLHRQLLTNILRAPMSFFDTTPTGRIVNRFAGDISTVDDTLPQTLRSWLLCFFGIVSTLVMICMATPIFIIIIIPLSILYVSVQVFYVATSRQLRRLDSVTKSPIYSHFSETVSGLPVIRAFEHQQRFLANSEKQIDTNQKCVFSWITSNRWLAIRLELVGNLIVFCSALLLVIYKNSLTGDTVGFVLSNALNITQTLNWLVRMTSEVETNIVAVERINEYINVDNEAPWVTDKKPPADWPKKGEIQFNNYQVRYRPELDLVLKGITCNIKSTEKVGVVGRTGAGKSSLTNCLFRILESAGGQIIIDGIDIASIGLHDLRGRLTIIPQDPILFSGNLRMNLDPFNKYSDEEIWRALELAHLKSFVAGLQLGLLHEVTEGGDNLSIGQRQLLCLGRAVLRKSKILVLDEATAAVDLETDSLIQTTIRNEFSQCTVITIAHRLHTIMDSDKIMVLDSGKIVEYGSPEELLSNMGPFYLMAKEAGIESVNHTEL
compound,measurement,setting,value
C[C@H](CCC(=O)O)[C@H]1CC[C@H]2[C@@H]3[C@@H](O)C[C@@H]4C[C@H](O)CC[C@]4(C)[C@H]3CC[C@]12C [URSODIOL],Activity,[1],inducer [+]
same,Activity,[2],inducer [+]
same,Activity,[3],inducer [+]
same,Activity,[4],inducer [+]
same,Activity,[5],inducer [Decrease]
same,Activity,[6],inducer [Decrease]

# From ChEMBL document CHEMBL2074506, “Effects of ursodeoxycholic and cholic acid feeding on hepatocellular transporter expression in mouse liver” (Gastroenterology, 2001)
